Data set [1] addresses T1, Protein tyrosine phosphatase type IVA 3 (Homo sapiens, UniProt O75365). In words: Inhibition of PRL3 after 1 hr by DiFMUP assay.
For data set [2], the target named is T1, Protein tyrosine phosphatase type IVA 3. Kind of data set: Inhibition of PRL-3-mediated cell migration in human DLD1 cells after 15 hrs by crystal violet staining based microscopic assay. Particulars: DLD-1.
Data set [3] shares this target. Kind of data set: Inhibition of PRL-3-mediated cell migration in human DLD1 cells at 40 uM after 15 hrs by crystal violet staining based microscopic assay. The settings on record: DLD-1.
The subject of the next data set is DLD-1. Kind of data set: Cytotoxicity against human DLD1 cells expressing PRL-3 assessed as inhibition of cell proliferation up to 50 uM after 24 hrs by WST-1 assay. Type of data set: cell-based. Particulars: dld-1, 24 h. For orientation: Tetrazolium dyes change colour on reduction, which living cells bring about.
Data set [4] addresses T1, Protein tyrosine phosphatase type IVA 3. In words: Inhibition of PRL-3-mediated cell invasion in human DLD1 cells after 20 hrs using crystal violet staining by Matrigel invasion assay. It counts as cell-based. The settings on record: DLD-1.
The target is the same in data set [5]. Kind of data set: Inhibition of PRL-3-mediated cell invasion in human DLD1 cells at 40 uM after 20 hrs using crystal violet staining by Matrigel invasion assay. It counts as cell-based. Particulars: DLD-1.
For data set [6] the target is unchanged. Kind of data set: Inhibition of PRL3-mediated ezrin phosphorylation in human DLD1 cells assessed as increase in alpha-ERM-Thr567 phosphorylation at 10 to 40 uM after 15 hrs by chemiluminescence method relative to control. It counts as cell-based. The settings on record: DLD-1.
The next data set addresses Ezrin (Homo sapiens) (UniProt P15311). Kind of data set: Inhibition of ezrin phosphorylation in human DLD1 cells assessed as increase in alpha-ERM-Thr567 phosphorylation at 10 to 40 uM after 15 hrs by chemiluminescence method. Type of data set: cell-based. Particulars: DLD-1.

The source of these data is ChEMBL document CHEMBL1932947, “Emodin inhibits migration and invasion of DLD-1 (PRL-3) cells via inhibition of PRL-3 phosphatase activity” (Bioorg Med Chem Lett, 2012).

Active and inactive are the calls of the source. The rule behind the calls is not given here.

T1 sequence (O75365 whole entry): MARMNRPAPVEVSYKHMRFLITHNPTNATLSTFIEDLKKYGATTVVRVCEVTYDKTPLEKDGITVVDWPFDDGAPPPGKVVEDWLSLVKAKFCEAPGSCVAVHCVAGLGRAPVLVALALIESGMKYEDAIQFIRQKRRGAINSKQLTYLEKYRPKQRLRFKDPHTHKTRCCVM
Sequence of Ezrin (Homo sapiens) (P15311 whole entry): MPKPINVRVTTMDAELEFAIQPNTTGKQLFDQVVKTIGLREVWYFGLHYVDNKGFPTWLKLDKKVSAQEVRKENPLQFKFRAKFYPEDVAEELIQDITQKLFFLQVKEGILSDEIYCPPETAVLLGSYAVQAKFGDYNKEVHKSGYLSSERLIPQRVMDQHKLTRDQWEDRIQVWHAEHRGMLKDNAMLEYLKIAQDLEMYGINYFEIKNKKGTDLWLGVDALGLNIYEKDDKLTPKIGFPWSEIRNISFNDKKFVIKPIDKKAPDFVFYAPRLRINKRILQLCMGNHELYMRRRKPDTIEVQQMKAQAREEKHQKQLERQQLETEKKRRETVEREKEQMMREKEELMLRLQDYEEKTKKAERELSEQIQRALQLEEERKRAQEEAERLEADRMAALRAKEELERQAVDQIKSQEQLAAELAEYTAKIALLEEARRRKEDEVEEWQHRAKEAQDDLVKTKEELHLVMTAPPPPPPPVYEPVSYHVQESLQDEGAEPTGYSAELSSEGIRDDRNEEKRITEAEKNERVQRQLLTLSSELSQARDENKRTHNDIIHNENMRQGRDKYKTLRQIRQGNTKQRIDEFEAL

The IC50 is the concentration that gives 50% inhibition. A higher IC50 goes with weaker potency in that assay. One may read the inhibition as how much of the control response was suppressed. For `Cc1cc(O)c2c(c1)C(=O)c1cc(O)cc(O)c1C2=O` [EMODIN], in data set [1], the IC50 was 3.5 µM. The inhibition result in data set [1] was “Dose-dependent effect”; in data set [2] it was “Dose-dependent effect”; in data set [3], above 80%; in data set [4], “Dose-dependent effect”; in data set [5], 70%. Moreover, the Activity result with DLD-1 was “Non-toxic”. The inhibition entry in data set [6] was “Active”. In addition, the inhibition entry at Ezrin (Homo sapiens) was “inactive”.
